In ChEMBL document CHEMBL1201862, “PubChem BioAssay data set” (2004):
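How tested: cells in 96-well plates exposed to compound for 48 hours at five concentrations. GI50 = concentration required for 50% inhibition of growth.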 The source made the active and inactive calls. No stated cut-off is given here; in the data, active = GI50 up to about 1.1 µM and inactive = higher.

Tests used:
Experiment in all cases: DTP human tumour cell line panel, 48 h
MOLT-4 = test system: MOLT-4
OVCAR-4 = test system: OVCAR-4
HOP-92 = test system: HOP-92
U-251 = test system: U-251
HCT-15 = test system: HCT-15
NCI-H226 = test system: NCI-H226
HOP-18 = test system: HOP-18
786-0 = test system: 786-0
KM12 = test system: KM12
COLO 205 = test system: COLO 205
SF-295 = test system: SF-295
XF498 = test system: XF498
HL-60 = test system: HL-60
TK-10 = test system: TK-10
RPMI-8226 = test system: RPMI-8226
HT-29 = test system: HT-29
SW-620 = test system: SW-620
DMS-273 = test system: DMS-273
SF-268 = test system: SF-268
KM-20L2 = test system: KM-20L2
SR = test system: SR
ACHN = test system: ACHN
SN12C = test system: SN12C
SK-MEL-2 = test system: SK-MEL-2
Malme-3M = test system: Malme-3M
LOX IMVI = test system: LOX IMVI
LXFL 529 = test system: LXFL 529
HCT-116 = test system: HCT-116
RXF 393 = test system: RXF 393
NCI-H522 = test system: NCI-H522
SK-MEL-5 = test system: SK-MEL-5
HCC 2998 = test system: HCC 2998
SNB-19 = test system: SNB-19
DMS-114 = test system: DMS-114
A498 = test system: A498
HOP-62 = test system: HOP-62
NCI-H23 = test system: NCI-H23
UACC-257 = test system: UACC-257
SNB-75 = test system: SNB-75
CAKI-1 = test system: CAKI-1
A549 = test system: A549
NCI-H460 = test system: NCI-H460
M14 = test system: M14
CCRF-CEM = test system: CCRF-CEM
SK-OV-3 = test system: SK-OV-3
SK-MEL-28 = test system: SK-MEL-28
DLD-1 = test system: DLD-1
OVCAR-5 = test system: OVCAR-5
NCI/ADR-RES = test system: NCI/ADR-RES
T47D = test system: T47D
MDA-MB-435 = test system: MDA-MB-435
UACC-62 = test system: UACC-62
DU-145 = test system: DU-145
MDA-N = test system: MDA-N
UO-31 = test system: UO-31
MDA-MB-231 = test system: MDA-MB-231
Hs-578T = test system: Hs-578T
K562 = test system: K562
SF-539 = test system: SF-539
SNB-78 = test system: SNB-78
OVCAR-8 = test system: OVCAR-8
EKVX = test system: EKVX
IGROV-1 = test system: IGROV-1
MCF7 = test system: MCF7
PC-3 = test system: PC-3
OVCAR-3 = test system: OVCAR-3

Q: Which GI50 (MOLT-4) does the source give for `O=C(N/N=C/c1cccc(F)c1)c1ccncc1` here?
A: > 100 µM (inactive)

Q: And the GI50 (OVCAR-4)?
A: > 10 µM (inactive)

Q: And the GI50 (HOP-92)?
A: > 100 µM (inactive)

Q: What about the GI50 (U-251) of the same compound?
A: > 100 µM (inactive)

Q: And the GI50 (HCT-15)?
A: > 100000 nM

Q: And the GI50 (NCI-H226)?
A: 56 nM (active)

Q: What about the GI50 (HOP-18) of the same compound?
A: > 100 µM (inactive)

Q: What about the GI50 (786-0) of the same compound?
A: > 100 µM (inactive)

Q: And the GI50 (KM12)?
A: > 100 µM (inactive)

Q: What about the GI50 (COLO 205) of the same compound?
A: > 100 µM (inactive)

Q: What about the GI50 (SF-295) of the same compound?
A: > 100 µM (inactive)

Q: And the GI50 (XF498)?
A: > 100 µM (inactive)

Q: What about the GI50 (HL-60) of the same compound?
A: > 100 µM (inactive)

Q: And the GI50 (TK-10)?
A: > 100 µM (inactive)

Q: And the GI50 (RPMI-8226)?
A: > 100 µM (inactive)

Q: And the GI50 (HT-29)?
A: > 100 µM (inactive)

Q: What about the GI50 (SW-620) of the same compound?
A: > 100 µM (inactive)

Q: What about the GI50 (DMS-273) of the same compound?
A: > 100 µM (inactive)

Q: And the GI50 (SF-268)?
A: > 100 µM (inactive)

Q: What about the GI50 (KM-20L2) of the same compound?
A: > 100 µM (inactive)

Q: And the GI50 (SR)?
A: > 100 µM (inactive)

Q: What about the GI50 (ACHN) of the same compound?
A: > 100 µM (inactive)

Q: And the GI50 (SN12C)?
A: > 100 µM (inactive)

Q: What about the GI50 (SK-MEL-2) of the same compound?
A: > 100 µM (inactive)

Q: What about the GI50 (Malme-3M) of the same compound?
A: > 100 µM (inactive)

Q: And the GI50 (LOX IMVI)?
A: > 100 µM (inactive)

Q: What about the GI50 (LXFL 529) of the same compound?
A: > 100 µM (inactive)

Q: And the GI50 (HCT-116)?
A: > 100 µM (inactive)

Q: What about the GI50 (RXF 393) of the same compound?
A: > 100 µM (inactive)

Q: What about the GI50 (NCI-H522) of the same compound?
A: > 10 µM (inactive)

Q: And the GI50 (SK-MEL-5)?
A: > 100 µM (inactive)

Q: And the GI50 (HCC 2998)?
A: > 100 µM (inactive)

Q: And the GI50 (SNB-19)?
A: > 100 µM (inactive)

Q: What about the GI50 (DMS-114) of the same compound?
A: > 100 µM (inactive)

Q: And the GI50 (A498)?
A: > 100 µM (inactive)

Q: What about the GI50 (HOP-62) of the same compound?
A: > 100 µM (inactive)

Q: And the GI50 (NCI-H23)?
A: > 100 µM (inactive)

Q: What about the GI50 (UACC-257) of the same compound?
A: > 100 µM (inactive)

Q: What about the GI50 (SNB-75) of the same compound?
A: > 100 µM (inactive)

Q: What about the GI50 (CAKI-1) of the same compound?
A: > 10 µM (inactive)

Q: What about the GI50 (A549) of the same compound?
A: > 100 µM (inactive)

Q: And the GI50 (NCI-H460)?
A: > 100 µM (inactive)

Q: And the GI50 (M14)?
A: > 100 µM (inactive)

Q: What about the GI50 (CCRF-CEM) of the same compound?
A: > 100 µM (inactive)

Q: And the GI50 (SK-OV-3)?
A: > 100 µM (inactive)

Q: What about the GI50 (SK-MEL-28) of the same compound?
A: > 100 µM (inactive)

Q: And the GI50 (DLD-1)?
A: > 100 µM (inactive)

Q: For `O=C1C=C2S[C@H]3C[C@]2(C=C1Br)C1=C(N3)C(=O)c2[nH]cc3c2C1=NCC3` [(+)-DISCORHABDIN B], which GI50 (OVCAR-5) is on record?
A: 1.85 µM (inactive)

Q: What about the GI50 (MOLT-4) of the same compound?
A: 0.148 µM (active)

Q: What about the GI50 (NCI/ADR-RES) of the same compound?
A: 205 nM (active)

Q: And the GI50 (OVCAR-4)?
A: 0.218 µM (active)

Q: And the GI50 (T47D)?
A: 283 nM (active)

Q: What about the GI50 (HOP-92) of the same compound?
A: 0.973 µM (active)

Q: And the GI50 (U-251)?
A: 1.75 µM (inactive)

Q: And the GI50 (MDA-MB-435)?
A: 158 nM (active)

Q: And the GI50 (HCT-15)?
A: 745 nM

Q: What about the GI50 (NCI-H226) of the same compound?
A: 2240 nM (inactive)

Q: And the GI50 (HOP-18)?
A: 1.78 µM (inactive)

Q: What about the GI50 (786-0) of the same compound?
A: 0.883 µM (active)

Q: What about the GI50 (UACC-62) of the same compound?
A: 555 nM (active)

Q: What about the GI50 (DU-145) of the same compound?
A: 1.92 µM (inactive)

Q: What about the GI50 (KM12) of the same compound?
A: 1.6 µM (inactive)

Q: And the GI50 (COLO 205)?
A: 0.0721 µM (active)

Q: What about the GI50 (SF-295) of the same compound?
A: 1.5 µM (inactive)

Q: What about the GI50 (XF498) of the same compound?
A: 1.42 µM (inactive)

Q: And the GI50 (HL-60)?
A: 0.0853 µM (active)

Q: And the GI50 (TK-10)?
A: 1.4 µM (inactive)

Q: And the GI50 (RPMI-8226)?
A: 0.305 µM (active)

Q: What about the GI50 (MDA-N) of the same compound?
A: 165 nM (active)

Q: And the GI50 (HT-29)?
A: 0.344 µM (active)

Q: And the GI50 (SW-620)?
A: 0.0857 µM (active)

Q: And the GI50 (UO-31)?
A: 1.57 µM (inactive)

Q: What about the GI50 (DMS-273) of the same compound?
A: 1.17 µM (inactive)

Q: And the GI50 (MDA-MB-231)?
A: 305 nM (active)

Q: What about the GI50 (SF-268) of the same compound?
A: 1.54 µM (inactive)

Q: What about the GI50 (KM-20L2) of the same compound?
A: 0.463 µM (active)

Q: What about the GI50 (SR) of the same compound?
A: 2.69 µM (inactive)

Q: What about the GI50 (ACHN) of the same compound?
A: 0.632 µM (active)

Q: What about the GI50 (SN12C) of the same compound?
A: 1.23 µM (inactive)

Q: And the GI50 (SK-MEL-2)?
A: 0.469 µM (active)

Q: What about the GI50 (Malme-3M) of the same compound?
A: 0.115 µM (active)

Q: And the GI50 (LOX IMVI)?
A: 0.347 µM (active)

Q: And the GI50 (Hs-578T)?
A: 1.5 µM (inactive)

Q: And the GI50 (K562)?
A: 209 nM (active)

Q: What about the GI50 (SF-539) of the same compound?
A: 1.63 µM (inactive)

Q: And the GI50 (LXFL 529)?
A: 0.19 µM (active)

Q: And the GI50 (HCT-116)?
A: 0.103 µM (active)

Q: And the GI50 (RXF 393)?
A: 0.272 µM (active)

Q: And the GI50 (NCI-H522)?
A: 0.273 µM (active)

Q: And the GI50 (SK-MEL-5)?
A: 1.04 µM (active)

Q: And the GI50 (SNB-78)?
A: 1.78 µM (inactive)

Q: And the GI50 (OVCAR-8)?
A: 541 nM (active)

Q: What about the GI50 (EKVX) of the same compound?
A: 1.68 µM (inactive)

Q: What about the GI50 (HCC 2998) of the same compound?
A: 2.3 µM (inactive)

Q: And the GI50 (SNB-19)?
A: 12.4 µM (inactive)

Q: And the GI50 (IGROV-1)?
A: 1.53 µM (inactive)

Q: What about the GI50 (MCF7) of the same compound?
A: 520 nM (active)

Q: What about the GI50 (A498) of the same compound?
A: 5.65 µM (inactive)

Q: And the GI50 (NCI-H23)?
A: 1.22 µM (inactive)

Q: What about the GI50 (UACC-257) of the same compound?
A: 0.213 µM (active)

Q: What about the GI50 (SNB-75) of the same compound?
A: 1.55 µM (inactive)

Q: What about the GI50 (CAKI-1) of the same compound?
A: 1.69 µM (inactive)

Q: And the GI50 (A549)?
A: 2.47 µM (inactive)

Q: And the GI50 (NCI-H460)?
A: 3.05 µM (inactive)

Q: And the GI50 (M14)?
A: 0.726 µM (active)

Q: What about the GI50 (CCRF-CEM) of the same compound?
A: 0.234 µM (active)

Q: What about the GI50 (SK-OV-3) of the same compound?
A: 5.62 µM (inactive)

Q: And the GI50 (SK-MEL-28)?
A: 1.4 µM (inactive)

Q: What about the GI50 (PC-3) of the same compound?
A: 1.83 µM (inactive)

Q: What about the GI50 (DLD-1) of the same compound?
A: 0.617 µM (active)

Q: What about the GI50 (OVCAR-3) of the same compound?
A: 347 nM (active)
